The record followed here is ChEMBL document CHEMBL5500402, “Potent, Selective Agonists for the Cannabinoid-like Orphan G Protein-Coupled Receptor GPR18: A Promising Drug Target for Cancer and Immunity” (J Med Chem, 2024).

Assay [1] addresses T1, N-arachidonyl glycine receptor (Homo sapiens, UniProt Q14330).
T1 sequence (Q14330 whole entry): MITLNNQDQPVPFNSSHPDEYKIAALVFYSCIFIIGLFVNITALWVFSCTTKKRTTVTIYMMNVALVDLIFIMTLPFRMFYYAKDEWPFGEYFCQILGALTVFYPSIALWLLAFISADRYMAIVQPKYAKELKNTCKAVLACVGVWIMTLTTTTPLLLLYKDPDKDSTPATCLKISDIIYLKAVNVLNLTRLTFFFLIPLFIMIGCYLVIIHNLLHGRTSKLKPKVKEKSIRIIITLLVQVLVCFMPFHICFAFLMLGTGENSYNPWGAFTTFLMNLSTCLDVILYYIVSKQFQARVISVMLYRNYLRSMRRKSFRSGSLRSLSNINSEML
Kind of assay: Agonist activity at human GPR18 expressed in CHO cells assessed as activation by measuring beta-arrestin2 recruitment incubated for 90 mins by luminescence based assay. The class given is functional, cell-based. In general terms: Recruitment of arrestin is a read-out of receptor activation apart from second messengers.

For assay [2], the target named is T2, G-protein coupled receptor 55 (Homo sapiens, UniProt Q9Y2T6). Description: Agonist activity at human GPR55 expressed in CHO-K1 cells by beta-arrestin2 recruitment assay.
Assay [3] deals with T2, G-protein coupled receptor 55. Description: Antagonist activity at human GPR55 expressed in CHO-K1 cells assessed as inhibition of beta-arrestin2 recruitment.
A further assay deals with Cannabinoid receptor 1 (Homo sapiens, UniProt P21554). Kind of assay: Displacement of [3H]-CP55940 from human CB1 receptor expressed in CHO cells assessed as inhibition constant by radioligand competition binding assay. The class given is cell-based. The settings on record: read-out: Ki. In general terms: Loss of bound radioactivity is the signal in a displacement assay; it reports binding, not function.

The next assay addresses Cannabinoid receptor 2 (Homo sapiens, UniProt P34972). Description: Displacement of [3H]-CP55940 from human CB2 receptor expressed in CHO cells assessed as inhibition constant by radioligand competition binding assay. The class given is cell-based.
Assay [4] concerns the target T1, N-arachidonyl glycine receptor. Kind of assay: Agonist activity at human GPR18-eYFP and Renilla luc expressed in CHO cells assessed as beta-arrestin2 recruitment by BRET/beta-arrestin2 enzyme complementation assay.
The target of assay [5] is T3, N-arachidonyl glycine receptor (Mus musculus, UniProt Q8K1Z6).
T3 sequence (Q8K1Z6 whole entry): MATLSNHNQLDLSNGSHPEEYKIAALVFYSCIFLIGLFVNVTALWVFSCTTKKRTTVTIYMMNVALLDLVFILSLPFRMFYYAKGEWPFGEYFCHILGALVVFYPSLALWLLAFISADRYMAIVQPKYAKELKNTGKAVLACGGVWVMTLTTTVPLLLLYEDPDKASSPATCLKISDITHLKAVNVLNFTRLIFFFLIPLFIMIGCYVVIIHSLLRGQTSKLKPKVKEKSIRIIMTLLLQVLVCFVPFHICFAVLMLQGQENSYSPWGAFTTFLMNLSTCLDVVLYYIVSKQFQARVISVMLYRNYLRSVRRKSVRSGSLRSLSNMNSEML
Description: Agonist activity at mouse GPR18 expressed in CHO cells assessed as activation by measuring beta-arrestin2 recruitment incubated for 90 mins by luminescence based assay

Assay [6] addresses T1, N-arachidonyl glycine receptor. Description: Antagonist activity at human GPR18 receptor expressed in CHO cells assessed as inhibition of THC-induced activation by measuring beta-arrestin2 recruitment.
For assay [7] the target is unchanged.
Assay [8] addresses G-protein coupled receptor 183 (Homo sapiens, UniProt P32249). Kind of assay: Agonist activity at human GPR183 expressed in PathHunter CHO-K1 cells assessed as activation by measuring beta-arrestin2 recruitment.

Where only a bound is given, the exact number is not on record here.

What is called EC50 is the concentration giving half of the maximal effect. Usually IC50 stands for the midpoint of a concentration-inhibition curve. Usually Ki stands for the dissociation constant of the complex between target and ligand, obtained from inhibition or displacement.

T2 sequence (Q9Y2T6 whole entry): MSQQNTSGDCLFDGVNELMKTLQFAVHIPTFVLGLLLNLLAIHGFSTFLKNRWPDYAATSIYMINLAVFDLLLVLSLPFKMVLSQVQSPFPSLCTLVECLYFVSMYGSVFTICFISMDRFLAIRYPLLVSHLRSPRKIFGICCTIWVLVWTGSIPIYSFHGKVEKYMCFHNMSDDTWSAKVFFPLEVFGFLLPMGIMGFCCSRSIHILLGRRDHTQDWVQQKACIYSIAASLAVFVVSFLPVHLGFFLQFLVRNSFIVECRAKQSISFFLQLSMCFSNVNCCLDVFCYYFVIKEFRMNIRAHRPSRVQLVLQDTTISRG
Sequence of Cannabinoid receptor 2 (P34972 whole entry): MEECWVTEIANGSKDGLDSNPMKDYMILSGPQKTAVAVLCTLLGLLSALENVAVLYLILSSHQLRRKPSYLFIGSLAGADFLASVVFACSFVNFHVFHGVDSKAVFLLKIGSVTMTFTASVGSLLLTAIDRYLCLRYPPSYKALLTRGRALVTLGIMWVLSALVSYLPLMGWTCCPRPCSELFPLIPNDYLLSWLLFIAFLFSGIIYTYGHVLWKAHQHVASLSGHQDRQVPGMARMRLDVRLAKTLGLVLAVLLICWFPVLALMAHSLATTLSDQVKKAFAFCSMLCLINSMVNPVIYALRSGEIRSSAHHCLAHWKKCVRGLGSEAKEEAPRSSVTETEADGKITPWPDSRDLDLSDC
Sequence of Cannabinoid receptor 1 (P21554 whole entry): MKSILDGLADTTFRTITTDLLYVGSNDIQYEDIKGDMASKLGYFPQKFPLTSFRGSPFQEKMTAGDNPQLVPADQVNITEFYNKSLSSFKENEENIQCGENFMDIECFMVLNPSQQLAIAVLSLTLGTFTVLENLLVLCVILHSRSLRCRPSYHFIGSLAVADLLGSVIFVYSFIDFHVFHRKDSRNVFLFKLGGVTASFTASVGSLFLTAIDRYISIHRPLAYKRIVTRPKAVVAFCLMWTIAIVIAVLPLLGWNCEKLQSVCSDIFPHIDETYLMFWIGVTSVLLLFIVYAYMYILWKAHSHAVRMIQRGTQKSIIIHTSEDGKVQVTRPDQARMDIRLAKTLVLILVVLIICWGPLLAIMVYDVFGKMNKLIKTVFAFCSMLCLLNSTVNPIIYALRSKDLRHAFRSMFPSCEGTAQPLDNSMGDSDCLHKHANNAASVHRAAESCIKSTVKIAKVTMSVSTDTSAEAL
Sequence of G-protein coupled receptor 183 (P32249 whole entry): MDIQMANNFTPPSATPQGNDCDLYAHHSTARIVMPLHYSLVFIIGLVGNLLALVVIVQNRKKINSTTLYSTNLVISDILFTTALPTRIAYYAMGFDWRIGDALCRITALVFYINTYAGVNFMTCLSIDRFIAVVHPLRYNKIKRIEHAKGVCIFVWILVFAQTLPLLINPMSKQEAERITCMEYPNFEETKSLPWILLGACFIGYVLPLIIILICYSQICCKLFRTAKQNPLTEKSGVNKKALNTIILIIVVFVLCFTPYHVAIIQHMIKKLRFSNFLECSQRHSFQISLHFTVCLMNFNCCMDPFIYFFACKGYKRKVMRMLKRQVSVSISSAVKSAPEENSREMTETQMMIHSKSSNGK

Regarding `Cn1c(=O)c2c(nc(NCCc3c[nH]c4ccccc34)n2Cc2ccc(Cl)cc2)n(C)c1=O`, the EC50 in assay [1] is 19 nM; in assay [2], > 10000 nM; in assay [4], 38 nM; in assay [5], 54 nM. The IC50 in assay [3] is > 10000 nM. Also, the Ki at Cannabinoid receptor 1 amounted to 1180 nM; at Cannabinoid receptor 2, 481 nM.
Regarding `O=C1/C(=C/c2cccc(OCCCCCCOc3ccc(Cl)cc3)c2)N=C2SCCCN12`, the IC50 in [6] was found to be 487 nM; in [7], 9910 nM.
As to `CCCCCc1cc(O)c2c(c1)OC(C)(C)[C@@H]1CCC(C)=C[C@@H]21` [DRONABINOL], the values for the EC50 in assay [1], in assay [8] and in assay [5] were 3370 nM, 38 nM and > 10000 nM, respectively.
